Reference: publication PMC4601023, “Novel anticancer agent, SQAP, binds to focal adhesion kinase and modulates its activity” (Scientific Reports, 2015)

Columns and labels:
Format in all cases: cell-based, human
[1] = system: Akt phosphorylation at S473 in A549; experiment: Akt phosphorylation in A549, Western blotting; conditions: A549, fibronectin, 1 h treatment
Experimental: Fibronectin is a glycoprotein located in the extracellular matrix that binds to integrins. […] A549 lung cancer cells have been used before for studying cell migration because of their metastatic model potential. A549 cells are also one of the tumor cell lines sensitive to SQMG[9]. Therefore, we studied the phosphorylation of FAK in A549 cells (Fig. 5C,D). SQAP could inhibit the phosphorylation of FAK at Y397 and Y925 after 1 h treatment in a dose dependent manner. […] We also examined paxillin and Akt phosphorylation in A549 as downstream targets of FAK. […] We hypothesize that SQAP diminish on Akt phosphorylation being more readily in A549 cancer cells than in HUVEC endothelial cells might be due to a higher Akt basal activity on cancer cells.
Cells were harvested and solubilized in RIPA buffer (20 mM Tris-HCl, pH 7.5, 1% Sodium deoxycholate, 150 mM NaCl, 5 mM EDTA, 1% Triton X-100, 0.1% SDS, 0.1%, 1 mM PMSF, 1 mM vanadate and 1 μg/mL leupeptin). Protein quantification was determined using the DC protein assay kit (Bio-Rad, Hercules, CA, USA). A total of 15 μg of each protein sample were separated by SDS–PAGE gels and blotted onto polyvinylidene difluoride membranes (Merck, Kenilworth, NJ, US). […]

[2] = system: VEGF mRNA expression in HUVEC cells; experiment: VEGF mRNA expression, quantitative real-time RT-PCR, HUVEC; conditions: 6 h SQAP treatment
Experimental: Figure 5 Effect of SQAP on FAK phosphorylation. The level of FAK phosphorylated at Y397 and Y925 was evaluated by Western blotting. (A) HUVEC cells were serum-depleted for 20 h before treatment with SQAP or vehicle for 30 min followed by treatment with or without VEGF (50 ng/mL) for 30 min. (B) HUVEC cells were cultured as stated in section A and then treated with SQAP, SQMG or SQP. (C) A549 cells were serum-deprived for 48 h before pretreatment with SQAP or vehicle followed by treatment with or without fibronectin (10 μg/mL) for 30 min. (D) A549 cells were cultured as stated in section C and then treated with SQAP, SQMG or SQP. (E–F) HUVEC and A549 cells were treated with SQAP for 6 h before adding an RNA stabilization reagent and prepared for Quantitative real-time RT-PCR.
Total RNA was prepared using an RNeasy Mini Kit (QIAGEN Inc., Hilden, Germany) according to the manufacturer’s instructions and then reverse-transcribed to cDNA with Transcriptor First Strand cDNA Synthesis Kit (Roche Applied Science, Mnnheim, Germany). Measurement of gene expression by quantitative analysis was performed using the LightCycler system (Roche Applied Science). Quantitative real-time RT-PCR analysis of β-actin, TSP-1 and VEGF-A expression were performed using the LightCycler FastStart DNA MasterPLUS SYBR Green I system (Roche Applied Science). […]

A549 cells = experiment: In vitro cell migration assay (Oris kit), A549; conditions: A549, 96 well cell migration kit
Experimental: Figure 6 SQAP inhibits cell migration in vitro. (A) HUVEC cells were seeded and grown to 100% confluence in 60-mm diameter dishes. After generating a single scratch in the monolayer, the cells were cultured for 11 h in medium containing 1% FBS and VEGF (50 ng/mL) in the presence or absence of SQAP. Photographs were taken immediately after 11 h. (B) The change in wound width was measured as described in the Materials and Methods. (C) A549 cells were seeded and grown to 100% confluence in 60-mm diameter dishes. After generating a single scratch in the monolayer, the cells cultured for the 25 h in media containing 1% FBS and fibronectin (10 μg/ml) treated with SQAP or vehicle. Photographs were collected immediately after wounding and after 25 h. (D) The change in wound width was measured as described in the Materials and Methods. Cell migration was additionally examined in 96 well plates. HUVEC (E) and A549 cells (F) were seeded and grown into confluence overnight. […] The fluorescent emission signal was obtained with a plate reader. […]
Wound healing was additionally assessed in HUVEC or A549 cells using a cell migration kit (Oris, Madison, WI, USA) as described by the manufacturer. […] The fluorescence emission signal in the migration zones was measured on a Wallac Arvo 5x microplate reader (Perkin Elmer, Waltham, MA, USA).

CCCCCCCCCCCCCCCCCC(=O)OCCCO[C@H]1O[C@H](CS(=O)(=O)O)[C@@H](O)[C@H](O)[C@H]1O [SQAP, sulfoquynovosylacylpropanediol]
Akt phosphorylation at S473 [1]: clearly downregulated
VEGF production level (mRNA, RT-PCR) [2]: reduced
cell migration (A549 cells): arrested
